Measured values: US6764854B2, “Methods for generating doubled haploid plants” (Northwest Plant Breeding Company, priority 1998, dated 2004)
Several values for one entry are separate records, joined by “and”; a condition that tells them apart may be missing. Equal values may be shown once.

Experiments:
[1] = system: microspores of wheat cultivar Chris; experiment: Optimization of 2,4-D concentration, embryoid yield and green plants (Example 4); assay type: cell-based
Procedure: (§1) Pretreatment of Spikes. After removing the lower nodal section, the collected tillers are placed in an autoclaved sterile flask, containing 50 ml of sterile (autoclaved) distilled water and preferably 0.1% (w/v) 2-HNA and 10^−6 to 10^−5 M 2,4-D. The open end of a plastic bag (thin-walled, grocery store bag) is then wrapped around the neck of the flask and sealed around the neck with masking tape to prevent microbial contamination and excessive loss of water. The flask is then placed in an incubator set at the desired stress temperature, optionally 33° C., but the temperature employed may be higher or lower. The optimum period of pretreatment varies with the genotype, but is preferably from between about 0.5 hours and about 72 hours, depending on the temperature. A presently preferred temperature pretreatment regime is from about 48 hours to about 72 hours at a temperature of about 33° C. The flask containing tillers can also be stored in a refrigerator at 4° C. for up to 1 month before subjecting the microspores to temperature stress treatment. It is important that after the temperature stress treatment, the tillers should not be stored in a refrigerator at 4° C. because the microspore viability goes down sharply.
(§2) Culture of isolated microspores. Isolated microspores are cultured in liquid NPB 98-1 medium or liquid NPB-99 medium, preferably liquid NPB-99 medium, as a suspension culture. An aliquot of 2 ml media per 35 mm×10 mm Petri dish, or 5 ml media per 60 mm×15 mm Petri dish, at a density of approximately 1.5×10^4 microspores per ml is effective. Immature ovaries are added to the culture at a density of one per ml of medium immediately preceding the incubation. Ovaries are aseptically picked out from fresh and disinfected spikes. Ovaries of all genotypes are effective for the present invention, but the ovaries from varieties Chris or Pavon 76 are preferred for embryogenesis of all wheat varieties tested. The Petri dish is sealed with parafilm and incubated in the dark at 27° C.
(§3) When embryoids reach the size of 1 to 2 mm, they are transferred aseptically to solid 190-2 or 190-2(b) medium, preferably 190-2(b) medium, at a density of 25-30 embryoids in each 100×15 mm Petri dish. They are incubated under continuous fluorescent light at room temperature (22° C.). In approximately two weeks, green plantlets develop and are ready for transfer to soil. Green plants are raised in the greenhouse, much like plants grown from seeds. If plants appear to be haploid, colchicine can be applied to induce chromosome doubling. Seeds produced on any plants are instantly homozygous, and so can immediately be used for rapid evaluation and selection in breeding, for analyses in genetics research, or for selection and evaluation of transformants in biotechnology.
Experiments were conducted to optimize the amount of 2,4-D utilized to enhance androgenesis and regeneration of green plants. Plant material was treated in accordance with the methods set forth in Example 1, except as described herein. Tillers of wheat cultivar Chris were treated with 2,4-D at concentrations of 0.2, 22.1, or 221 mg/l plus a fixed dose of 2-HNA at 100 mg/l. Two tillers were utilized per treatment.
Tillers in flasks with 2-HNA, plus different 2,4-D doses were placed at 33° C. for 70 hours before blending to release microspores. Microspores were cultured in 60×15 mm Petri dishes, each containing 5 ml medium NPB 98-1 plus 1 mg/l 2,4-D and incubated at 27° C. The regeneration medium was 190-2. Five fresh, live, immature Chris ovaries per Petri dish were included in each Petri dish.

Pavon 76 microspores = experiment: Optimization of 2,4-D concentration, embryoid yield, green plants and doubled haploids (Example 5); assay type: cell-based, wheat
Procedure: as §1, §2, §3
(§4) Experiments were conducted to optimize the amount of 2,4-D utilized to induce androgenesis and regeneration of green plants. Plant material was treated in accordance with the methods set forth in Example 1, except as described herein. Spikes of wheat cultivar Pavon 76 were treated with 2,4-D at concentrations of 0, 0.2, 2.2, or 22.1 mg/l plus a fixed dose of 2-HNA at 100 mg/l. Two spikes were utilized per treatment.
Spikes were incubated in sterile flasks with 2-HNA plus different doses of 2,4-D. The flasks were incubated at 33° C. for 46 hours before blending to release microspores. Microspores were cultured in 6-cm Petri dishes, each containing 5 ml medium NPB 98-1 plus 0 or 0.2 mg/l 2,4-D and incubated at 27° C. The regeneration medium was 190-2. Five fresh, live, immature Chris ovaries per Petri dish were included in each Petri dish.

[2] = system: microspores of wheat cultivar Chris; experiment: Effect of 2-HNA concentration on embryoid induction and green plant regeneration (Example 2); assay type: cell-based
Procedure: as §1, §2, §3
Experiments were conducted to evaluate the effect of 2-HNA on embryoid induction and green plant regeneration. Plant material was treated in accordance with the methods set forth in Example 1, except as described herein. Tillers of wheat cultivar Chris were treated with 2-HNA at concentrations of 0, 1, 10 or 100 mg/l. Three tillers were utilized for each concentration of 2-HNA.
Chris tillers were placed in sterile flasks and incubated with 2-HNA dissolved in sterile water at 33° C. for 66 hours before blending to release the microspores. As an option to ease the work schedule, newly sampled tillers may be incubated with 2-HNA at 4° C. for up to 72 hrs prior to the 33° C. treatment. Isolated microspores were cultured in 60×15 mm Petri dishes each containing 5 ml of medium NPB 98-1, including 1 mg/l phenylacetic acid (PAA) and incubated at 27° C. The regeneration medium was 190-2. Five fresh, live, Chris ovaries per Petri dish were included in each Petri dish.

[3] = system: microspores of wheat cultivar Pavon 76; experiment: Optimization of 2-HNA concentration, embryoid yield and green plants (Example 3); assay type: cell-based
Procedure: as §1, §2, §3
as §4, with “2-HNA” for “2,4-D”, “stimulate” for “induce”, “Tillers” for “Spikes”, “100, 500” for “0.2, 2.2,”, “1000” for “22.1 mg/l plus a fixed dose of 2-HNA at 100”, “tillers” for “spikes”
Tillers were placed in sterile flasks containing 50 ml 2-HNA solution and incubated at 33° C. for 46 hours before blending to release microspores. Microspores were again cultured in 60×15 mm Petri dishes, each containing 5 ml medium NPB 98-1 and incubated at 27° C. The regeneration medium was 190-2. Five fresh, live, immature Pavon 76 ovaries per Petri dish were included in each Petri dish.

[4] = pretreatment 2,4-D 0.2 mg/l + 2-HNA 100 mg/l, mean
[5] = pretreatment 2,4-D 0.2 mg/l + 2-HNA 100 mg/l, single repeats
[6] = pretreatment 2,4-D 22.1 mg/l + 2-HNA 100 mg/l, mean
[7] = pretreatment 2,4-D 22.1 mg/l + 2-HNA 100 mg/l, single repeats
[8] = pretreatment 2,4-D 2.2 mg/l + 2-HNA 100 mg/l, mean
[9] = pretreatment 2,4-D 2.2 mg/l + 2-HNA 100 mg/l, single repeats
[10] = 2-HNA 100 mg/l, % of embryoids transferred to regeneration medium, single repeats
[11] = pretreatment 2-HNA 100 mg/l, 2,4-D 0 mg/l, mean

O=C(O)COc1ccc(Cl)cc1Cl [2,4-D, 2,4-dichlorophenoxyacetic acid]
2,4-D concentration during the pretreatment at which number of induced embryoids and percentage of regenerated green plants were highest ([1]; plus 2-HNA 100 mg/l): 1 mg/L
Number of embryoids ([1]; pretreatment 2,4-D 0.2 mg/l + 2-HNA 100 mg/l, 33° C. 70 hours, induction medium 2,4-D 1 mg/l, single repeats): 2088 and 2107
Number of embryoids [1, 4]: 2098
green plant (%) [1, 4]: 92%
green plant (%) [1, 5]: 83% and 100%
Number of embryoids ([1]; pretreatment 2,4-D 22.1 mg/l + 2-HNA 100 mg/l, 33° C. 70 hours, induction medium 2,4-D 1 mg/l, single repeats): 1908 and 1156
Number of embryoids [1, 6]: 1532
green plant (%) [1, 6]: 71%
green plant (%) [1, 7]: 63% and 79%
Number of embryoids ([1]; pretreatment 2,4-D 221 mg/l + 2-HNA 100 mg/l, 33° C. 70 hours, induction medium 2,4-D 1 mg/l, single repeats): 0
Number of embryoids ([1]; pretreatment 2,4-D 221 mg/l + 2-HNA 100 mg/l, mean): 0
2,4-D concentration during the pretreatment at which number of induced embryoids and percentage of regenerated green plants were highest (Pavon 76 microspores; plus 2-HNA 100 mg/l): 2.2 mg/L
Number of embryoids (Pavon 76 microspores; pretreatment 2,4-D 0.2 mg/l + 2-HNA 100 mg/l, induction medium 2,4-D 0.2 mg/l, single repeats): 1200 and 1121
Number of embryoids (Pavon 76 microspores; [4]): 1161
green plant (%) (Pavon 76 microspores; [4]): 9%
green plant (%) (Pavon 76 microspores; [5]): 9%
Number of embryoids (Pavon 76 microspores; pretreatment 2,4-D 2.2 mg/l + 2-HNA 100 mg/l, induction medium 2,4-D 0.2 mg/l, single repeats): 1675 and 1634
Number of embryoids (Pavon 76 microspores; [8]): 1655
green plant (%) (Pavon 76 microspores; [8]): 30%
Doubled-Haploid % (Pavon 76 microspores; [9]): 50% and 38%
green plant (%) (Pavon 76 microspores; [9]): 31% and 28%
Number of embryoids (Pavon 76 microspores; pretreatment 2,4-D 22.1 mg/l + 2-HNA 100 mg/l, induction medium 2,4-D 0.2 mg/l, single repeats): 1119 and 1012
Number of embryoids (Pavon 76 microspores; [6]): 1066
green plant (%) (Pavon 76 microspores; [6]): 18%
Doubled-Haploid % (Pavon 76 microspores; [7]): 17%

O=C(O)c1cccnc1O [2-HNA, 2-hydroxynicotinic acid]
number of induced embryoids, dependence on concentration ([2]; 2-HNA 0, 1, 10 or 100 mg/l): increases with increasing concentrations of 2-HNA
percentage of regenerated green plants, dependence on concentration ([2]; 2-HNA 0, 1, 10 or 100 mg/l): does not significantly differ
green plant (%) ([2]; 2-HNA 1 mg/l, % of embryoids transferred to regeneration medium, single repeats): 100%
Number of embryoids ([2]; 2-HNA 1 mg/l, mean): 118
green plant (%) ([2]; 2-HNA 1 mg/l, mean): 100%
green plant (%) ([2]; 2-HNA 10 mg/l, % of embryoids transferred to regeneration medium, single repeats): 94% and 100%
Number of embryoids ([2]; 2-HNA 10 mg/l, mean): 322
green plant (%) ([2]; 2-HNA 10 mg/l, mean): 97%
Number of embryoids ([2]; 2-HNA 100 mg/l, 33° C. 66 hours, single repeats (rep 1, rep 2)): 1258 and 1217
green plant (%) [2, 10]: 100%
Number of embryoids ([2]; 2-HNA 100 mg/l, mean): 1238
green plant (%) ([2]; 2-HNA 100 mg/l, mean): 100%
Number of embryoids (Pavon 76 microspores; pretreatment 2-HNA 100 mg/l, 2,4-D 0 mg/l, induction medium 2,4-D 0, 33° C. 46 hours, single repeats): 603 and 607
Number of embryoids (Pavon 76 microspores; [11]): 605
green plant (%) (Pavon 76 microspores; [11]): 19%
green plant (%) (Pavon 76 microspores; pretreatment 2-HNA 100 mg/l, 2,4-D 0 mg/l, single repeats): 13% and 25%
green plant (%) [3, 10]: 60% and 67%
# embryoids ([3]; 2-HNA 100 mg/l, mean): 1356
green plant (%) ([3]; 2-HNA 100 mg/l, mean): 63%
green plant (%) ([3]; 2-HNA 500 mg/l, % of embryoids transferred to regeneration medium, single repeats): 33%
# embryoids ([3]; 2-HNA 500 mg/l, mean): 66
green plant (%) ([3]; 2-HNA 500 mg/l, mean): 33%
green plant (%) ([3]; 2-HNA 1000 mg/l, % of embryoids transferred to regeneration medium, single repeats): 40% and 22%
# embryoids ([3]; 2-HNA 1000 mg/l, mean): 768
green plant (%) ([3]; 2-HNA 1000 mg/l, mean): 31%
2-HNA concentration at which number of induced embryoids and percentage of regenerated green plants were highest ([3]; tested 0, 100, 500 or 1000 mg/l): 100 mg/L
